Reference: patent publication US20130281409A1, “Myelin Sheath Fatty Acids that Resolve Neuroinflammation” (priority 2012, published 2013)
“Also recorded” adds a separate entry of the source.

Legend:
CD4+ T cells = test: CD69 expression on lymph node cells from PGPC-treated EAE mice (flow cytometry); assay type: in vivo, mouse; details: lymph node cells of prophylactically treated EAE mice, cultured 4 days with 10 μg/ml PLP139-151
Protocol: FIG. 9. PGPC treatment of mice with EAE suppresses T-cell activation. (A) Expression of CD69 (an early marker of activation) on CD4+ and CD8+ propidium iodide-negative (i.e. live) lymphocytes isolated from PGPC—or vehicle-treated EAE mice and cultured for 4 days with 10 μg/ml of PLP139-151. The ratio of CD69+CD4+:CD69−CD4+ is 14.2%:39.6% for lymph node cells from vehicle-treated EAE mice, and 7.96%:55.2% for cells from PGPC-treated EAE mice. […] (B) Proliferation and (C) cytokine production of splenocytes isolated from the vehicle- or PGPC-treated EAE mice in panel A. Splenocytes from PGPC-treated mice (gray bars) secreted lower levels of IFN-γ and TNF in response to PLP139-151. *P<0.05, respectively, by Student's t-test comparing PLP139-151-stimulated cells from PGPC-treated mice with PLP139-151-stimulated cells from vehicle-treated mice.
PLP-stimulated cells from PLP139-151-immunized mice administered PGPC prophylactically: SJL/J mice were co-injected with PGPC and PLP139-151 in CFA and sacrificed 48 days later. Lymph node cells and splenocytes were then harvested and re-stimulated in vitro (2.5×10^6 cells/ml) with 10 μg/ml of PLP139-151 or with media alone. […]
Cells were stained according to standard protocols, run on a FACScan flow cytometer (BD Biosciences), and analysed with CellQuest software (BD Immunocytometry Systems) or with FlowJo software version 6.3.2 (Tree Star, Inc.). […]

[1] = test system: splenocytes from PLP139-151-immunized SJL mice; test: PLP139-151-induced proliferation of splenocytes of PLP139-151-immunized mice; assay type: cell-based, mouse; details: 30 μg/ml lipid, 48 hours
Protocol: PLP-stimulated cells from PLP139-151-immunized mice administered PGPC prophylactically: SJL/J mice were co-injected with PGPC and PLP139-151 in CFA and sacrificed 48 days later. Lymph node cells and splenocytes were then harvested and re-stimulated in vitro (2.5×10^6 cells/ml) with 10 μg/ml of PLP139-151 or with media alone. PLP-stimulated cells from untreated PLP139-151-immunized mice: SJL/J mice were immunized with PLP139-151 in CFA and sacrificed 10 days later. Splenocytes were then harvested and re-stimulated in vitro (at 5×10^5 cells/ml) with 10 μg/ml of PLP139-151 in the presence of 30 μg/ml of POPS, PGPC, azPC ester, or azPC.

RAW 264.7 cells = test: Apoptosis of LPS-stimulated RAW 264.7 macrophage cells; assay type: cell-based, mouse; details: 30 μg/ml lipid, 100 ng/ml LPS, 48 hours
Protocol: LPS-stimulated RAW 264.7 mouse macrophage cells: 1×10^5 cells/ml of RAW 264.7 cells were stimulated with 100 ng/ml of lipopolysaccharide (LPS) in the presence of 30 μg/ml of POPS, PGPC, azPC ester, or azPC. Cells were stained according to standard protocols, run on a FACScan flow cytometer (BD Biosciences), and analysed with CellQuest software (BD Immunocytometry Systems) or with FlowJo software version 6.3.2 (Tree Star, Inc.).

[2] = test system: NF-κB and ERK pathways, Bcl-2 family proteins; test: Immunoblot of inflammatory, survival and apoptotic signaling in anti-CD3/anti-CD28-stimulated T cells; assay type: cell-based, mouse; details: 30 μg/ml lipid, 15 min or 24 h
Protocol: CD3^+ T cells were isolated from the lymph nodes of naïve C57BL/6 mice by using CD3^+ T-cell enrichment columns (R&D systems). […] Cells were washed with ice-cold PBS and lysed in RIPA lysis buffer containing 1X Halt protease and phosphatase inhibitor cocktail (Pierce) with a Dounce homogenizer. Immunoblotting was performed with antibodies against phospho-Bim ([…]), phospho-Bad ([…]), phospho-Bcl-2 ([…]), phospho-IKKα/β (serines 180/181), phospho-p65 ([…]), phospho-ERK1/2 […]), and IκBα from Cell Signaling Technology.

[3] = test system: CD3+ T cells (gated on CD4+ T cells); test: T-cell apoptosis, Annexin V and 7AAD staining; assay type: cell-based, mouse; details: 30 μg/ml lipid, anti-CD3 and anti-CD28, 48 hours
Protocol: FIG. 5. […] (C) TUNEL staining of brain and spinal-cord tissue from mice immunized with PLP139-151 peptide (to induce EAE) and treated for 12 h with azPC, POPS, or vehicle on day 15 after immunization. […] (D) Quantification of TUNEL-positive infiltrating cells in brain and spinal cord shown in panel (C). Cells were stained according to standard protocols, run on a FACScan flow cytometer (BD Biosciences), and analysed with CellQuest software (BD Immunocytometry Systems). The antibody conjugate used was FITC anti-CD4, clone GK1.5 (BD Pharmingen). 7AAD staining was performed by using the Annexin V-PE Apoptosis Detection Kit I (BD Pharmingen). Cells were stained according to standard protocols, run on a FACScan flow cytometer (BD Biosciences), and analysed with CellQuest software (BD Immunocytometry Systems) or with FlowJo software version 6.3.2 (Tree Star, Inc.).

B cells [4] = test: Proliferation of anti-IgM F(ab')2/anti-CD40-stimulated purified B cells; assay type: cell-based, mouse; details: 30 μg/ml lipid, anti-IgM F(ab')2 and anti-CD40, 48 hours
Protocol: (§1) Anti-IgM F(ab′)2 fragment/anti-CD40-stimulated purified B cells: We harvested spleens from naive C57BL/6 mice and used a B-cell isolation kit (Miltenyi Biotec) to negatively isolate B cells. We then stimulated 5×10^5 cells/ml of B cells with 5 μg/ml of each of soluble anti-IgM F(ab′)2 fragment (Jackson ImmunoResearch) antibody and anti-CD40 antibody (eBioscience) in the presence of 30 μg/ml of POPS, PGPC, azPC ester, or azPC.

B cells [5] = test: Apoptosis of anti-IgM F(ab')2/anti-CD40-stimulated purified B cells; assay type: cell-based, mouse; details: 30 μg/ml lipid, anti-IgM F(ab')2 and anti-CD40, 48 hours
Protocol: as §1
Cells were stained according to standard protocols, run on a FACScan flow cytometer (BD Biosciences), and analysed with CellQuest software (BD Immunocytometry Systems) or with FlowJo software version 6.3.2 (Tree Star, Inc.). The antibody conjugates used were FITC anti-CD4 (clone GK1.5, BD Pharmingen), FITC anti-mouse CD8 (clone 53-6.7, BD Pharmingen), FITC anti-mouse CD3 (clone 145-2C11, eBioscience), PE-anti-rat IgG2A isotype control (BD Pharmingen), and PE-anti-mouse CD69 (clone H1.2F3, eBioscience). 7AAD staining was performed by using the Annexin V-PE Apoptosis Detection Kit I (BD Pharmingen).

[6] = test system: infiltrating cells in brain and spinal cord of mice with EAE; test: TUNEL assay on brain and spinal cord of EAE mice; assay type: in vivo, mouse; details: 200 μg i.v. on day 15 after immunization
Protocol: Mice with EAE were treated intravenously with 200 μg of azPC, 200 μg of POPS, or vehicle (0.05% Tween-20 in PBS) on day 15 after immunization with CFA and PLP139-151 peptide. Mice were treated with lipids for 12, 24, or 48 hours and then sacrificed and perfused with 4% paraformaldehyde. Brains and spinal cords were embedded in paraffin and sectioned. TUNEL-positive cells were detected by using the In Situ Cell Death Kit, AP (Roche) according to the manufacturer's instructions.

| SMILES | CD4+CD69+ cells (CD4+ T cells) [%] | CD69−CD4+ cells (CD4+ T cells) [%] | PLP139-151-induced proliferation of splenocytes [1] | apoptosis of LPS-activated RAW 264.7 cells (RAW 264.7 cells) | CD3/CD28-induced activation of the NF-κB and ERK pathways [2] | CD3/CD28-induced phosphorylation of Bim (serine 69) and Bad (serine 112) [2] | increase in T-cell apoptosis [3] [fold] | proliferation of activated B cells (B cells [4]) | apoptosis of activated B cells (B cells [5]) | number of TUNEL-positive cells with lymphocyte morphology in brain and spinal cord [6] |
| --- | --- | --- | --- | --- | --- | --- | --- | --- | --- | --- |
| CCCCCCCCCCCCCCCC(=O)OC[C@H](COP(=O)([O-])OCC[N+](C)(C)C)OC(=O)CCCC(=O)O [PGPC, 1-Palmitoyl-2-Glutaroyl-sn-Glycero-3-Phosphocholine] | 7.96 | 55.2 | suppress | induce apoptosis | suppressed the CD3/CD28-induced activation | suppressed the CD3/CD28-induced phosphorylation | – | – | – | – |
| CCCCCCCC/C=C\CCCCCCCC(=O)O[C@H](COC(=O)CCCCCCCCCCCCCCC)COP(=O)(O)OC[C@H](N)C(=O)O [POPS, 1-Palmitoyl-2-Oleoyl-sn-Glycero-3-[Phospho-L-Serine]] | – | – | suppress | induce apoptosis | suppressed the CD3/CD28-induced activation | suppressed the CD3/CD28-induced phosphorylation | > 5 | modestly suppressed proliferation | increased apoptosis | increased the number of TUNEL-positive cells |
| CCCCCCCCCCCCCCCC(=O)OC[C@H](COP(=O)([O-])OCC[N+](C)(C)C)OC(=O)CCCCCCCC(=O)O [azPC, 1-Palmitoyl-2-Azelaoyl-sn-Glycero-3-Phosphocholine] | – | – | suppress | increased apoptosis; also recorded: induce apoptosis | suppressed the CD3/CD28-induced activation | suppressed the CD3/CD28-induced phosphorylation | > 4 | modestly suppressed proliferation | – | increased the number of TUNEL-positive cells |
